Each structure is given as a SMILES string. Where a name gives a salt, the structure may show the parent alone. Bounds are passed on as bounds.

In one data set the test system is HBV. Nature of the data set: HBV-DNA antiviral assay using HepG2.117 cells (intracellular HBV DNA by qPCR). The conditions noted are these: 3 days incubation, HBV DNA inhibition. The format is cell-based, genotype D HBV. As for the experimental part:
(§1) The following assay procedure describes the HBV antiviral assay, using HepG2.117 cells, which carry a stably integrated genotype D HBV genome under the control of a Tet-off promoter, and intracellular HBV DNA quantification as endpoint. Cell viability is assessed in parallel by measuring the intracellular ATP content using CellTiter-Glo 2.0 (Promega).
On day 0, HepG2.117 cells (which are maintained in routine cell culture with doxycycline present in the medium at a final concentration of 1 μg/mL) are seeded in 96-well plates (white with clear bottom) at a density of 2.0×10^4 cells/well (0.1 mL/well) in medium without doxycycline to induce pgRNA transcription and subsequent formation of HBV particles. The cells are incubated at 37° C. and 5% CO2.
(§2) On day 1, medium is removed from each well, the test articles are diluted in culture medium without doxcycyline and 100 μL was added to cell culture wells (9 concentrations, 4-fold dilution). For each plate, 6 untreated (merely DMSO) wells are included. The final concentration of DMSO in the culture medium is 2%. Each plate is prepared in duplicate (one for HBV DNA extraction, one for CellTiter-Glo 2.0 measurement). The cells are incubated at 37° C. and 5% CO2 for 3 days.
(§3) On day 4, cell viability is assessed using CellTiter-Glo 2.0 and cell lysates are prepared for HBV DNA extraction and subsequent quantification by qPCR.
HBV DNA Quantification by qPCR
Medium is removed from each well and 100 μL of 0.33% NP-40 in H2O was added to each well. Plates are sealed, incubated at 4° C. for 5 mins, vortexed extensively and centrifuged briefly. Next, 35 μL of lysate is added to 65 μL QuickExtract DNA Extraction Solution (Epicentre) in a PCR plate for each well. PCR plate is incubated at 65° C. for 6 mins, 98° C. for 2 mins and finally cooled to 4° C. HBV DNA is then quantified by qPCR with HBV-specific primers and probes as specified in Table 2 using the Bio-Rad SSOAdvanced Universal Probes Supermix on a CFX96 machine (Bio-Rad). The PCR cycle program consisted of 95° C. for 3 mins, followed by 40 cycles at 95° C. for 10 sec and 60° C. for 30 sec.
A DNA standard is prepared by dilution of an IDT gBlock corresponding to the amplicon with concentrations ranging from 10^2 to 10^8 copies/input (i.e., per 4 μL) and used to generate a standard curve by plotting Cq values vs. HBV DNA standard concentration. The quantity of HBV DNA in each sample is determined by interpolating from the standard curve.
(§4) Cell viability is calculated as follows: % Cell viability=(luminescence value of test sample)/(average luminescence value of 2% DMSO control)×100%. HBV DNA inhibition was calculated as follows: 100−(HBV DNA copy number of test sample)/(average HBV DNA copy number of 2% DMSO control)×100%. No normalization to entecavir is required due to the excellent dynamic window of this assay. The CC50, EC50 and EC90 values were determined by dose-response curves fitted using non-linear regression.
On the technique in general: Quantitative PCR measures a nucleic acid by following its amplification.

Another data set has as its system HepG2.117 cells. Nature of the data set: Cell viability by CellTiter-Glo 2.0 (intracellular ATP content). The format is cell-based. The conditions noted are these: 3 days incubation. How it is done:
as §1, §2, §3
(§5) Using the other plates, the cell viability is quantified by CellTiter-Glo 2.0 according to the manufacturer's manual. In brief, 100 μL of reagent solution is added to the culture plates and shaken for 2′. The plates are incubated at rt for 10 min and luminescence signal is subsequently measured on a VarioSkan Lux (ThermoFisher) plate reader.
as §4
On the technique in general: In ATP-based viability assays light output follows the ATP content of the culture.

Assay in data set [1]: as above
It is filed as cell-based. The conditions noted are these: human, HepG2.117 cells, 3 days incubation. As for the experimental part: as §1, §2, §3, §5, §4

In general, EC50 refers to the concentration at which the effect is half-maximal. Low values mean higher potency in that assay, high ones lower potency in that assay. As usually defined, the CC50 is the concentration that lowers cell viability or growth by half. High values mean better tolerance by the cells, low ones harm at low concentration. Turning to `C=C[C@H](C)Nc1nc2c(c(=O)n1-c1ccc(C(=O)N(C)C(=O)O[C@@H](C)OC(=O)[C@@H](N)C(C)C)cc1)C[C@@H](C)N(C(=O)c1ccc(Br)c(C(F)(F)F)c1)C2` (relative stereo) [Compound 6, (*S)-1-(((4-((R)-7-(4-bromo-3-(trifluoromethyl)benzoyl)-2-(((S)-but-3-en-2-yl)amino)-6-methyl-4-oxo-5,6,7,8-tetrahydropyrido[3,4-d]pyrimidin-3(4H)-yl)benzoyl)(methyl)carbamoyl)oxy)ethyl L-valinate hydrochloride], the EC50 with HBV was not above 0.05 µM. This compound gave a CC50 in the data set with HepG2.117 cells of more than 50 µM.
For `C=C[C@H](C)Nc1nc2c(c(=O)n1-c1ccc(C(=O)N(C)C(=O)O[C@H](C)OC(=O)[C@@H](N)C(C)C)cc1)C[C@@H](C)N(C(=O)c1ccc(Br)c(C(F)(F)F)c1)C2` (relative stereo) [Compound 7, (*R)-1-(((4-((R)-7-(4-bromo-3-(trifluoromethyl)benzoyl)-2-(((S)-but-3-en-2-yl)amino)-6-methyl-4-oxo-5,6,7,8-tetrahydropyrido[3,4-d]pyrimidin-3(4H)-yl)benzoyl)(methyl)carbamoyl)oxy)ethyl L-valinate hydrochloride], in that order: not above 0.05 µM and more than 50 µM.
For `C=C[C@H](C)Nc1nc2c(c(=O)n1-c1ccc(C(=O)N(C)C(=O)O[C@H](OC(=O)[C@@H](N)C(C)C)C(C)C)cc1)C[C@@H](C)N(C(=O)c1ccc(Br)c(C(F)(F)F)c1)C2` (relative stereo) [Compound 10, (*S)-1-(((4-((R)-7-(4-bromo-3-(trifluoromethyl)benzoyl)-2-(((S)-but-3-en-2-yl)amino)-6-methyl-4-oxo-5,6,7,8-tetrahydropyrido[3,4-d]pyrimidin-3(4H)-yl)benzoyl)(methyl)carbamoyl)oxy)-2-methylpropyl L-valinate hydrochloride], in that order: not above 0.05 µM and more than 50 µM.
For `C=C[C@H](C)Nc1nc2c(c(=O)n1-c1ccc(C(=O)N(C)C(=O)O[C@@H](OC(=O)[C@@H](N)C(C)C)C(C)C)cc1)C[C@@H](C)N(C(=O)c1ccc(Br)c(C(F)(F)F)c1)C2` (relative stereo) [Compound 11, (*R)-1-(((4-((R)-7-(4-bromo-3-(trifluoromethyl)benzoyl)-2-(((S)-but-3-en-2-yl)amino)-6-methyl-4-oxo-5,6,7,8-tetrahydropyrido[3,4-d]pyrimidin-3(4H)-yl)benzoyl)(methyl)carbamoyl)oxy)-2-methylpropyl L-valinate hydrochloride], in that order: not above 0.05 µM and more than 50 µM.
In the case of `C=C[C@H](C)Nc1nc2c(c(=O)n1-c1ccc(C(=O)NC)cc1)C[C@@H](C)N(C(=O)c1ccc(Br)c(C(F)(F)F)c1)C2` [Compound 1, 4-((R)-7-(4-bromo-3-(trifluoromethyl)benzoyl)-2-(((S)-but-3-en-2-yl)amino)-6-methyl-4-oxo-5,6,7,8-tetrahydropyrido[3,4-d]pyrimidin-3(4H)-yl)-N-methylbenzamide], the EC50 with HBV (Hepatitis B virus, 72 h) was not above 0.05 µM. In addition, in data set [1], it took 46.8 µM to reach half-maximal cytotoxicity (CC50 at 3 days).
The matching figures for `C=C[C@H](C)Nc1nc2c(c(=O)n1-c1ccc(C(=O)N(C)C(=O)OCOP(=O)(O)O)cc1)C[C@@H](C)N(C(=O)c1ccc(Br)c(C(F)(F)F)c1)C2` [Compound 2, (phosphonooxy)methyl (4-((R)-7-(4-bromo-3-(trifluoromethyl)benzoyl)-2-(((S)-but-3-en-2-yl)amino)-6-methyl-4-oxo-5,6,7,8-tetrahydropyrido[3,4-d]pyrimidin-3(4H)-yl)benzoyl)(methyl)carbamate]: not above 0.05 µM and more than 50 µM.
The matching figures for `C=C[C@H](C)Nc1nc2c(c(=O)n1-c1ccc(C(=O)N(C)C(=O)OCOC(=O)/C=C/C(=O)O)cc1)C[C@@H](C)N(C(=O)c1ccc(Br)c(C(F)(F)F)c1)C2` [Compound 3, (E)-4-((((4-((R)-7-(4-bromo-3-(trifluoromethyl)benzoyl)-2-(((S)-but-3-en-2-yl)amino)-6-methyl-4-oxo-5,6,7,8-tetrahydropyrido[3,4-d]pyrimidin-3(41H)-yl)benzoyl)(methyl)carbamoyl)oxy)methoxy)-4-oxobut-2-enoic acid]: not above 0.05 µM and more than 50 µM.
For `C=C[C@H](C)Nc1nc2c(c(=O)n1-c1ccc(C(=O)N(C)C(=O)OCOC(=O)[C@@H](N)C(C)C)cc1)C[C@@H](C)N(C(=O)c1ccc(Br)c(C(F)(F)F)c1)C2` [Compound 4, (((4-((R)-7-(4-bromo-3-(trifluoromethyl)benzoyl)-2-(((S)-but-3-en-2-yl)amino)-6-methyl-4-oxo-5,6,7,8-tetrahydropyrido[3,4-d]pyrimidin-3(4H)-yl)benzoyl)(methyl)carbamoyl)oxy)methyl L-valinate hydrochloride], in that order: not above 0.05 µM and more than 50 µM.
The compound `C=C[C@H](C)Nc1nc2c(c(=O)n1-c1ccc(C(=O)N(C)C(=O)OCOC(=O)[C@H](N)C(C)C)cc1)C[C@@H](C)N(C(=O)c1ccc(Br)c(C(F)(F)F)c1)C2` [Compound 5, (((4-((R)-7-(4-bromo-3-(trifluoromethyl)benzoyl)-2-(((S)-but-3-en-2-yl)amino)-6-methyl-4-oxo-5,6,7,8-tetrahydropyrido[3,4-d]pyrimidin-3(4H)-yl)benzoyl)(methyl)carbamoyl)oxy)methyl D-valinate hydrochloride] registered an EC50 with HBV (Hepatitis B virus, 72 h) not above 0.05 µM. In data set [1], this compound gave a CC50 at 3 days of 48.8 µM.
`C=C[C@H](C)Nc1nc2c(c(=O)n1-c1ccc(C(=O)N(C)CO)cc1)C[C@@H](C)N(C(=O)c1ccc(Br)c(C(F)(F)F)c1)C2` [Compound 8, 4-((R)-7-(4-bromo-3-(trifluoromethyl)benzoyl)-2-(((S)-but-3-en-2-yl)amino)-6-methyl-4-oxo-5,6,7,8-tetrahydropyrido[3,4-d]pyrimidin-3(4H)-yl)-N-(hydroxymethyl)-N-methylbenzamide]: the EC50 in the data set with HBV (Hepatitis B virus, 72 h) was not above 0.05 µM. In data set [1], this compound showed a CC50 at 3 days of more than 50 µM.
The matching figures for `C=C[C@H](C)Nc1nc2c(c(=O)n1-c1ccc(C(=O)N(C)C(=O)OCOC(=O)C[C@H](O)C(=O)O)cc1)C[C@@H](C)N(C(=O)c1ccc(Br)c(C(F)(F)F)c1)C2` [Compound 9, (S)-4-((((4-((R)-7-(4-bromo-3-(trifluoromethyl)benzoyl)-2-(((S)-but-3-en-2-yl)amino)-6-methyl-4-oxo-5,6,7,8-tetrahydropyrido[3,4-d]pyrimidin-3(4H)-yl)benzoyl)(methyl)carbamoyl)oxy)methoxy)-2-hydroxy-4-oxobutanoic acid]: not above 0.05 µM and more than 50 µM.

For the origin of these results see patent US20240150351A1, “BICYCLIC COMPOUNDS” (Aligos Therapeutics, Inc., priority 2022, published 2024).
